According to patent US12220391B2, “Compositions and methods of use of β-hydroxy-β-methylbutyrate (HMB) for modulating autophagy and lipophagy” (Metabolic Technologies, LLC, priority 2016, dated 2025):

Tests used:
[1] = compared with CaHMB; cited from earlier work
AMPK [2] = assay: AMPK activation in HEK293 cells; type: cell-based; conditions: similarly treated HEK293 cells (data not shown)
[3] = healthy young or old adults; cited from earlier work
adipocytes (SGBS) = assay: Phosphor protein array, SGBS adipocytes; type: cell-based; conditions: HMB-treated SGBS adipocytes
Procedure: (§1) Lysates from HMB-treated muscle (HSMM) and adipocytes (SGBS) were analyzed using a phosphor protein array. Many mTOR targets were regulated in both cell system (FIG. 8). Increases in CREB phosphorylation on serine 133 on a signaling protein array using SGBS adipocytes treated HMB was seen (FIG. 8). Thus, the activating phosphorylation of CREB at S133 mediates induction of TFEB in these adipocytes and this pathway results in the upregulation of autophagy.

[4] = tested on: differentiated adipocytes; assay: Lipolysis in differentiated adipocytes; type: cell-based; conditions: pretreated 48 hours with 1 mM HMB; basal and 1 uM isoproterenol; n=4
Procedure: (§2) Differentiated adipocytes were treated with HMB in regular growth medium for determination of lipolysis and gene expression. The adipocytes were pretreated for 48 hours with 1 mM HMB (n=4), resulting in basal and 1 uM isoproterenol stimulated lipolysis (FIG. 3A).

[5] = tested on: plasma CPK (creatine phosphokinase); conditions: following intense exercise, within the first 48 hrs of supplementation; cited from earlier work
TFEB = TFEB gene expression in human primary adipocytes; type: cell-based; conditions: 1 mM HMB, 96 hours, n=3, p<0.05
Source text: (§3) These transcription factors represent two different autophagy pathways.

Primary preadipocytes = assay: Dual-labeled LC3 (DsRed/GFP) imaging of autophagy in primary preadipocytes; type: cell-based; conditions: 1 mM HMB, 4 days
Procedure: A primary adipocyte cell based assay for visualizing HMB activated lipophagy was developed. Primary preadipocytes were cultured on glass coverslips and treated with HMB for four days in regular growth medium. Cells were fixed and mounted with DAPI-containing medium and imaged with 60× objective. Autophagy vesicles are in red with degradation of green signal indicative of autophagy activation (FIG. 7). Nuclei are stained in blue (FIG. 7). A dual-labeled LC3 retroviral expression contrast was used to generate recombinant retrovirus using 293GPG cells. Primary preadipocytes were infected with the viral particles and, starting with four days after infection, selected with geneticin for two weeks prior to the imaging experiments. The LC3 fusion construct labels the autophagosomes and harbors dual signals; DsRed and GFP green probes. In the basal state there is co-localization of the green and red signals resulting in a yellow signal in the merged panel (FIG. 7 top panel with no HMB). When autophagy is activated, the GFP probe is cleaved from LC3 by ATG4 and degraded resulting in loss of the green signal and in absence of the co-localization in the merged panel. The initial studies used preadipocytes infected with the LC3 containing retrovirus and treated or not treated for 4 days with 1 mM HMB (FIG. 7, top: no HMB, bottom +HMB).

muscle cells (HSMM) = assay: Phosphor protein array, HSMM muscle cells; type: cell-based, human; conditions: HMB-treated HSMM muscle cells
Procedure: as §1

[6] = tested on: autophagy related protein (ATG7); assay: ATG7 gene expression in differentiated adipocytes; type: cell-based; conditions: HMB, 96 hours, n=6, p<0.05
Procedure: as §2

[7] = tested on: caspases-3 and -8 proteases; conditions: cited from earlier work
mTOR = conditions: in vitro, through mTOR phosphorylation; cited from earlier work
BNIP3 = BNIP3 gene expression in human primary adipocytes; type: cell-based; conditions: 1 mM HMB, 96 hours, n=3, p<0.05
Source text: as §3

[8] = tested on: ubiquitin-proteosome proteolytic pathway; conditions: muscle protein catabolism stimulated by PIF, LPS and angiotensin II; cited from earlier work
[9] = tested on: adipose triglyceride lipase (ATGL); assay: ATGL gene expression in differentiated adipocytes; type: cell-based; conditions: HMB, 96 hours, n=6, p<0.05
Procedure: as §2

[10] = after HMB is fed; cited from earlier work
ATG7 = ATG7 gene expression (qPCR) in primary human skeletal muscle myotubes; type: cell-based; conditions: HMB 1 mM, 4 days, HSMM myotubes, qPCR normalized to 36B4, n=6
Procedure: Cultured primary human skeletal muscle cells (HSMM, Lonza) were grown to confluence and differentiated into myotubes. The cells were then supplemented with HMB (1 mM) for 4 days (n=6 for treatment or control groups) with a medium change every other day. Gene expression (mRNA) was determined at the end of the treatment by quantitative polymerase chain reaction (qPCR). For normalization, the mRNA signal was adjusted to the co-amplified signal of the ribosomal protein 36B4.

AMPK [11] = assay: AMPK activation (phosphorylated AMPK substrates, total AMPK) in primary human adipocytes; type: cell-based; conditions: 1 mM HMB, 96 hours
Procedure: A line of subcutaneous preadipocytes isolated from normal humans (non-diabetic controls) was used. These cells differentiate well (see FIG. 4) and provide a good in vitro model for studying effects of HMB on lipophagy. […] Differentiated adipocytes (14 days post confluence) were treated for 4 days with 1 mM HMB supplemented in normal growth medium. Lysates were probed with an antibody (Cell Signal Technologies) directed against AMPK phosphorylated substrates (consensus motif LCRXXpS/pT) to obtain a broad evaluation of AMPK activation and total AMPK levels were also measured. […] The cells were lysed and probed for phosphorylated targets of AMPK and for total AMPK levels (FIG. 5B).

In the case of `CC(C)(O)CC(=O)O` [HMB free acid, β-hydroxy-β-methylbutyric acid], the absorption [1] is given as “absorbed quicker” and the tissue clearance [1] is given as “greater tissue clearance”.

In the case of `CC(C)(O)CC(=O)O` [HMB, β-hydroxy-β-methylbutyric acid], the “AMPK substrate phosphorylation increase” value (AMPK [2]) is given as “not observed”, the side effects [3] is given as “no side effects” and the “CREB phosphorylation (serine 133)” value (adipocytes (SGBS)) is given as “enhanced”. The HSP27 phosphorylation (adipocytes (SGBS)) was “enhanced”, the Yes kinase phosphorylation (adipocytes (SGBS)) was “Enhanced” and the “activation of p53” value (adipocytes (SGBS)) was “Reduced activation”. For the same compound, the “activation of pSTAT3” value (adipocytes (SGBS)) was “Reduced activation”, the “activity of the mTOR pathway” value (adipocytes (SGBS)) was “Reduced activity” and the “lipolysis (basal and isoproterenol stimulated)” value [4] was “activates”. The “muscle damage measured by elevated plasma CPK” value [5] was “reduced”, the “TFEB mRNA levels” value (TFEB) was “increased” and the “size of autophagic puncta” value (Primary preadipocytes) was “significant increases”. The “LC3 GFP green signal and green/red co-localization” value (Primary preadipocytes; preadipocytes infected with LC3 retrovirus) was “Loss of green signals and absence of green/red co-localization”, the “RSK 1/2/3 phosphorylation at the mTOR site (S473)” value (muscle cells (HSMM)) was “significant reduction” and the “activation of STAT3” value (muscle cells (HSMM)) was “reduced activation”. The “activation of p53” value (muscle cells (HSMM)) was “reduced activation”, the mTOR activity (muscle cells (HSMM)) was “inhibition” and the “p70 S6 kinase phosphorylation at several threonine p-sites” value (muscle cells (HSMM)) was “significant reduction”. The ATG7 gene expression [6] was “significantly increased”, the “activation of caspases-3 and -8 proteases” value [7] was “attenuates” and the protein synthesis (mTOR) was “stimulates”. For the same compound, the “BNIP3 mRNA levels” value (BNIP3) was “increased”, the proteolysis [8] was “decreases” and the ATGL gene expression [9] was “significantly increased”. For the same compound, the “loss of HMB to urine” value [10] was 20-50%, the “ATG7 gene expression (mRNA)” value (ATG7) was “Significant (p<0.01) upregulation” and the “total AMPK levels” value (AMPK [11]) was “not significantly changed”. The “AMPK substrate phosphorylation intensity” value (AMPK [11]; densitometry, n=3, p<0.01) was “significant increase”.
